IC50 data for 19 compounds are collected here from patent US8829193B2, “PIM kinase inhibitors and methods of their use” (Novartis AG, priority 2008, dated 2014).

pIC50: −log10 of the molar value.

Holding throughout (format): biochemical
One assay addresses Pim3 kinase (Homo sapiens (Human), UniProt Q86V86). The assay can be described thus: Pim3 ATP depletion assay. The conditions noted are these: 40 μM ATP, 100 μM BAD peptide. As for the experimental part:
(§1) The activity of PIM3 is measured using a luciferase-luciferin based ATP detection reagent to quantify ATP depletion resulting from kinase-catalyzed phosphoryl transfer to a peptide substrate. Compounds to be tested are dissolved in 100% DMSO and directly distributed into white 384-well plates at 0.5 piper well. […] After 15 minutes, 10 μl of 80 μM ATP in assay buffer is added. Final assay concentrations are 5 nM PIM1, 40 μM ATP, 100 μM BAD peptide and 2.5% DMSO. The reaction is performed until approximately 50% of the ATP is depleted, then stopped by the addition of 20 μl KinaseGlo Plus (Promega Corporation) solution. The stopped reaction is incubated for 10 minutes and the remaining ATP detected via luminescence on the Victor2 (Perkin Elmer).

The target of the next assay is Pim2 kinase (Homo sapiens (Human), UniProt Q9P1W9). Description: Pim2 ATP depletion assay. To be noted: 4 μM ATP, 10 μM BAD peptide, 5 nM PIM2. The method, then:
as §1, with “of PIM2” for “of PIM3”, “of 8” for “of 80”, “nM PIM2, 4” for “nM PIM1, 40”, “ATP, 10” for “ATP, 100”, “stopped with” for “stopped by”

In the next assay the target is Pim1 kinase (Homo sapiens (Human), UniProt P11309). Description: Pim1 ATP depletion assay. To be noted: 20 μM ATP, 40 μM BAD peptide, 2.5 nM PIM1. As for the experimental part:
The activity of PIM1 is measured using a luciferase-luciferin based ATP detection reagent to quantify ATP depletion resulting from kinase-catalyzed phosphoryl transfer to a peptide substrate. Compounds to be tested are dissolved in 100% DMSO and directly distributed into white 384-well plates at 0.5 μl per well. […] After 15 minutes, 10 μl of 40 μM ATP in assay buffer is added. Final assay concentrations are 2.5 nM PIM1, 20 μM ATP, 40 μM BAD peptide and 2.5% DMSO. The reaction is performed until approximately 50% of the ATP is depleted, then stopped with the addition of 20 μl KinaseGlo Plus (Promega Corporation) solution. The stopped reaction is incubated for 10 minutes and the remaining ATP detected via luminescence on the Victor2 (Perkin Elmer).

Chain of Pim1 kinase (P11309 whole entry): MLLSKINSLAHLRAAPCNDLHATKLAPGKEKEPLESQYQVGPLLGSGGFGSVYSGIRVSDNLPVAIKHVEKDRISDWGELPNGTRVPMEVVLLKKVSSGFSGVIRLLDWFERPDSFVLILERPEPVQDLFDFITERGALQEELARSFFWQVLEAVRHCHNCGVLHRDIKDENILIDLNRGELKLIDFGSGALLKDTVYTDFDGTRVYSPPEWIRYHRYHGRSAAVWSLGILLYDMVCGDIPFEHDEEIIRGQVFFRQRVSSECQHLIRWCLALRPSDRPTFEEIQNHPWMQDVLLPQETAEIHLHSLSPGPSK
Chain of Pim2 kinase (Q9P1W9 whole entry): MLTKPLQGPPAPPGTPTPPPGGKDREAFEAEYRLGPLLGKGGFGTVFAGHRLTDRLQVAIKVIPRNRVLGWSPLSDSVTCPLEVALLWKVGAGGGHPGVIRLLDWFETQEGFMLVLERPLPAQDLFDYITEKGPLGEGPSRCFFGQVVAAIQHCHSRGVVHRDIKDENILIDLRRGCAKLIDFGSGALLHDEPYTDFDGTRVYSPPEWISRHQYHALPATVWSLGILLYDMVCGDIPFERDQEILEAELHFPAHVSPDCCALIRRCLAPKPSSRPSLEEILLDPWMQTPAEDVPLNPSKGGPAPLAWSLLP

For the compound `C[C@H]1C[C@@H](c2ccncc2NC(=O)c2csc(-c3c(F)cccc3F)n2)C[C@@H](N)[C@H]1F` (racemic) [Example 58, N-(4-((+/−)-3-amino-4-fluoro-5-methylcyclohexyl)pyridin-3-yl)-2-(2,6-difluorophenyl)thiazole-4-carboxamide], the results for the pIC50 against Pim3 kinase and on Pim2 kinase were 7.74 and 7.33, respectively.
Take `COc1ccc(F)c(-c2nc(C(=O)Nc3cnccc3[C@@H]3C[C@H](C)C[C@H](N)C3)cs2)c1F` (stereo in doubt) [Example 52, 2-(2,6-Difluoro-3-methoxy-phenyl)-thiazole-4-carboxylic acid [4-(3-amino-5-methyl-cyclohexyl)-pyridin-3-yl]-amide]: the negative-log IC50 (pIC50) (usually −log10 of the IC50, conventionally taken in molar units) against Pim1 kinase was 9.00; on Pim3 kinase, 8.70; against Pim2 kinase it was 8.40.
On the same counts, the results for `CCOc1ccc(F)c(-c2nc(C(=O)Nc3cnccc3[C@@H]3C[C@H](C)C[C@H](N)C3)cs2)c1F` (stereo in doubt) [Example 54, 2-(3-Ethoxy-2,6-difluoro-phenyl)-thiazole-4-carboxylic acid [4-(3-amino-5-methyl-cyclohexyl)-pyridin-3-yl]-amide] are 9.00, 8.52 and 8.05.
Consider `C[C@@H]1C[C@H](N)C[C@H](c2ccncc2NC(=O)c2csc(-c3c(F)ccc(F)c3F)n2)C1` (stereo in doubt) [Example 55, 2-(2,3,6-Trifluoro-phenyl)-thiazole-4-carboxylic acid [4-(3-amino-5-methyl-cyclohexyl)-pyridin-3-yl]-amide], for which the pIC50 was 8.52 against Pim1 kinase, 8.30 at Pim3 kinase and 7.82 against Pim2 kinase.
`C[C@@H]1C[C@H](N)C[C@H](c2ccncc2NC(=O)c2csc(-c3c(F)ccc(Cl)c3F)n2)C1` (stereo in doubt) [Example 56, 2-(3-Chloro-2,6-difluoro-phenyl)-thiazole-4-carboxylic acid [4-(3-amino-5-methyl-cyclohexyl)-pyridin-3-yl]-amide]: the negative-log IC50 (pIC50) at Pim1 kinase is 9.00; against Pim3 kinase, 8.52; at Pim2 kinase, 7.92.
On the same counts, the results for `C[C@@H]1C[C@H](N)C[C@H](c2ccncc2NC(=O)c2csc(-c3c(F)cc(O)cc3F)n2)C1` (stereo in doubt) [Example 57, 2-(2,6-Difluoro-4-hydroxy-phenyl)-thiazole-4-carboxylic acid [4-(3-amino-5-methyl-cyclohexyl)-pyridin-3-yl]-amide] are 9.00, 8.70 and 8.40.
The like results for `N[C@@H]1CN(c2ccncc2NC(=O)c2csc(-c3c(F)cccc3F)n2)CC[C@H]1F` [Example 3, N-(4-((3R,4R)-3-amino-4-fluoropiperidin-1-yl)pyridin-3-yl)-2-(2,6-difluorophenyl)thiazole-4-carboxamide] were, in that order, 8.70, 8.30 and 7.64.
The like results for `N[C@H]1C[C@@H](O)CN(c2ccncc2NC(=O)c2csc(-c3c(F)cccc3F)n2)C1` [Example 5, N-(4-((3S,5R)-3-amino-5-hydroxypiperidin-1-yl)pyridin-3-yl)-2-(2,6-difluorophenyl)thiazole-4-carboxamide] were, in that order, 7.82, 7.89 and 7.11.
With `COC1CCN(c2ccncc2NC(=O)c2csc(-c3c(F)cccc3F)n2)CC1N` (centres unmarked) [Example 7, N-(4-(3-amino-4-methoxypiperidin-1-yl)pyridin-3-yl)-2-(2,6-difluorophenyl)thiazole-4-carboxamide], the pIC50 was 8.30 against Pim1 kinase, 7.74 against Pim3 kinase and 6.61 against Pim2 kinase.
On the same counts, the results for `N[C@H]1C[C@H](O)CN(c2ccncc2NC(=O)c2csc(-c3c(F)cccc3F)n2)C1` [Example 9, N-(4-((3S,5S)-3-amino-5-hyydroxypiperidin-1-yl)pyridin-3-yl)-2-(2,6-difluorophenyl)thiazole-4-carboxamide] are 7.16, 7.04 and 5.82.
The like results for `N[C@H]1C[C@H](OC(=O)c2ccccc2)CN(c2ccncc2NC(=O)c2csc(-c3c(F)cccc3F)n2)C1` [Example 10, (3S,5S)-5-amino-1-(3-(2-(2,6-difluorophenyl)thiazole-4-carboxamido)pyridin-4-yl)piperidin-3-yl benzoate] were, in that order, 5.65, 6.49 and 6.32.
With `N[C@H]1CCCN(c2ccncc2NC(=O)c2csc(C3CCCCC3)n2)C1` [Example 12, (S)-N-(4-(3-aminopiperidin-1-yl)pyridin-3-yl)-2-cyclohexylthiazole-4-carboxamide], the values for the negative logarithm of the IC50 (pIC50) against Pim1 kinase, against Pim3 kinase and against Pim2 kinase were 7.24, 7.35 and 6.68, respectively.
In the case of `NC1CC(CO)CN(c2ccncc2NC(=O)c2csc(-c3c(F)cccc3F)n2)C1` (centres unmarked) [Example 13, N-(4-(3-amino-5-(hydroxymethyl)piperidin-1-yl)pyridin-3-yl)-2-(2,6-difluorophenyl)thiazole-4-carboxamide], the pIC50 is 7.85 at Pim1 kinase, 7.62 on Pim3 kinase and 7.24 at Pim2 kinase.
The like results for `N[C@H]1C[C@H](F)CN(c2ccncc2NC(=O)c2csc(-c3c(F)cccc3F)n2)C1` [Example 17, N-(4-((3S,5S)-3-amino-5-fluoropiperidin-1-yl)pyridin-3-yl)-2-(2,6-difluorophenyl)thiazole-4-carboxamide] were, in that order, 8.40, 8.10 and 7.15.
On the same counts, the results for `NC1CN(c2ccncc2NC(=O)c2csc(-c3c(F)cccc3F)n2)CCC1Cl` (centres unmarked) [Example 18, N-(4-(3-amino-4-chloropiperidin-1-yl)pyridin-3-yl)-2-(2,6-difluorophenyl)thiazole-4-carboxamide] are 8.30, 7.92 and 7.27.
Consider `CC1CC(N)CN(c2ccncc2NC(=O)c2csc(C3CCCCC3)n2)C1` (centres unmarked) [Example 20, N-(4-(3-amino-5-methylpiperidin-1-yl)pyridin-3-yl)-2-cyclohexylthiazole-4-carboxamide], for which the figures for the pIC50 at Pim1 kinase, against Pim3 kinase and against Pim2 kinase were 7.92, 7.80 and 7.74, respectively.
The like results for `NC1CC(C(F)(F)F)CN(c2ccncc2NC(=O)c2csc(C3CCCCC3)n2)C1` (centres unmarked) [Example 21, N-(4-(3-amino-5-(trifluoromethyl)piperidin-1-yl)pyridin-3-yl)-2-cyclohexylthiazole-4-carboxamide] were, in that order, 7.96, 7.70 and 7.68.
For `CO[C@H]1C[C@H](N)CN(c2ccncc2NC(=O)c2csc(-c3c(F)cccc3F)n2)C1` [Example 22, N-(4-((3S,5S)-3-amino-5-methoxypiperidin-1-yl)pyridin-3-yl)-2-(2,6-difluorophenyl)thiazole-4-carboxamide], the results for the pIC50 against Pim1 kinase, at Pim3 kinase and at Pim2 kinase were 6.89, 7.22 and 6.42, respectively.
The like results for `N[C@@H]1CN(c2ccncc2NC(=O)c2csc(-c3c(F)cccc3F)n2)CC(F)(F)C1` [Example 24, (S)-N-(4-(5-amino-3,3-difluoropiperidin-1-yl)pyridin-3-yl)-2-(2,6-difluoropheenyl)thiazole-4-carboxamide] were, in that order, 8.70, 8.40 and 7.42.
